Data published in ChEMBL document CHEMBL4622891, “Design, synthesis, and pharmacological evaluation of 2-(4-sulfonylphenyl)-2-[(E)-pyrrolidin-1-ylimino]-N-thiazoleacetamides as glucokinase activators” (Bioorg Med Chem Lett, 2020).

Each compound was assayed against Voltage-gated inwardly rectifying potassium channel KCNH2 (Homo sapiens, UniProt Q12809) (assay: Inhibition of human ERG).
Voltage-gated inwardly rectifying potassium channel KCNH2, sequence (Q12809 whole entry): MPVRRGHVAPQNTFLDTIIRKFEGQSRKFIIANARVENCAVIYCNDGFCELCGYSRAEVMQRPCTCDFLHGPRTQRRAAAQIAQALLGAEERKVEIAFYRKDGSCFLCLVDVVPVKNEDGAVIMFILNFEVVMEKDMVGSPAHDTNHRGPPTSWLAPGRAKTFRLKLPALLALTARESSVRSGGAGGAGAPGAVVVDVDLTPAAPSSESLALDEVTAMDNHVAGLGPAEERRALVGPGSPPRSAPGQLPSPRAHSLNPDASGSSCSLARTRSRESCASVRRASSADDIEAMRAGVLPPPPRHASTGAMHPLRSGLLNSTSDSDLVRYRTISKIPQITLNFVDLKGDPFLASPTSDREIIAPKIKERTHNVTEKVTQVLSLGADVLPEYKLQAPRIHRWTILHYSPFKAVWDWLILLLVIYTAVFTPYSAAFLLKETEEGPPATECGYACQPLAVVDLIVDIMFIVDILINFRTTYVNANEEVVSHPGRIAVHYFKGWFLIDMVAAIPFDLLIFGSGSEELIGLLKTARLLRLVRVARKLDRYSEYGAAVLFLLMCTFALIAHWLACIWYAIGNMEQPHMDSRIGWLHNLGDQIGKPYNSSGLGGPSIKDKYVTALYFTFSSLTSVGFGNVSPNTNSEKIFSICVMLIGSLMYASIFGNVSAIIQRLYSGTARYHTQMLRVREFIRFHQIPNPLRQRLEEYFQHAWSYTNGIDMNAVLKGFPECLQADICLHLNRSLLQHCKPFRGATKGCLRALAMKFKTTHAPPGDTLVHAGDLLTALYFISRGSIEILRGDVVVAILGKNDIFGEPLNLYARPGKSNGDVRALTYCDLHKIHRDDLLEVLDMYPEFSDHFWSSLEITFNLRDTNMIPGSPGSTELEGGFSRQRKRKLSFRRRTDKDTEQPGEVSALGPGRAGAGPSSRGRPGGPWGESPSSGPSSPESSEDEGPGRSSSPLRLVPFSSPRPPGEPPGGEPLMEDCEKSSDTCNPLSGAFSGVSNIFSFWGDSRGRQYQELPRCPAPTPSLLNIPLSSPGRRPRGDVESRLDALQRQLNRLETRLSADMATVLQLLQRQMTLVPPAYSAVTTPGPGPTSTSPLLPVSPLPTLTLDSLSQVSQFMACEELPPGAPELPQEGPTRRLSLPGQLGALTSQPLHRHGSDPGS

Row | Structure (SMILES) | IC50 [µM]
1 | CC(=O)N1CCN(Cc2cnc(NC(=O)/C(=N/N3CCCC3)c3ccc(S(=O)(=O)C4CC4)cc3)s2)CC1 | > 100
2 | O=C(Nc1ncc(Cl)s1)/C(=N/N1CCCC1)c1ccc(S(=O)(=O)C2CC2)cc1 | 16.7
3 | Cc1nnc(NC(=O)/C(=N/N2CCCC2)c2ccc(S(=O)(=O)C3CC3)cc2)s1 | > 100
4 | Cc1cnc(NC(=O)/C(=N/N2CCCC2)c2ccc(S(=O)(=O)C3CC3)cc2)s1 | > 100
5 | O=C(Nc1nccs1)/C(=N/N1CCCC1)c1ccc(S(=O)(=O)C2CC2)cc1 | 17.5
